Experimental data published in ChEMBL document CHEMBL1144506, “Fujita-Ban QSAR analysis and CoMFA study of quinoline antagonists of immunostimulatory CpG-oligodeoxynucleotides” (Bioorg Med Chem, 2007).
Where “and” joins values, the source holds several entries; their conditions need not be identical. Identical values can stand only once.

test system: WEHI; experiment: Inhibition of CpG-oligodeoxynucleotides-induced immunostimulation in mouse WEHI 231 cells; assay type: functional, cell-based; details: Mus musculus, WEHI

Row | Compound | EC50 [nM]
1 | Oc1ccc(Nc2cc(-c3ccc4ccccc4c3)nc3ccccc23)cc1 | 316
2 | CN(C)CCNc1cc(-c2ccc(F)cc2)nc2ccc(Cl)cc12 | 52.5
3 | CN1CCN(c2ccc(-c3cc(NCCCN4CCOCC4)c4ccccc4n3)cc2)CC1 | 2.19
4 | CN(C)CCNc1cc(-c2cccc(F)c2)nc2cc(C(F)(F)F)ccc12 | 550
5 | CN1CCN(CCNc2cc(-c3ccc(N4CCN(C)CC4)cc3)nc3ccccc23)CC1 | 1.51
6 | Cc1ccc(-c2cc(NCCN3CCOCC3)c3ccccc3n2)cc1 | 490
7 | CN(C)CCNc1cc(-c2ccc3ccccc3c2)nc2ccc(-c3ccccc3)cc12 | 6.46
8 | c1cc(CNCCN2CCOCC2)cc(-c2cc(NCCCN3CCCC3)c3ccccc3n2)c1 | 537
9 | Fc1ccc(-c2cc(NCCCCN3CCCC3)c3ccccc3n2)cc1 | 20.9
10 | CN(C)CCNc1cc(-c2ccccc2N2CCN(C)CC2)nc2ccccc12 | 38.9
11 | CN1CCN(CCCCNc2cc(-c3ccc(N4CCN(C)CC4)cc3)nc3ccccc23)CC1 | 4.9
12 | Fc1ccc(-c2cc(NCCCN3CCOCC3)c3ccccc3n2)cc1 | 67.6
13 | Cc1ccccc1-c1cc(NCCCN2CCOCC2)c2ccccc2n1 | 646
14 | Cc1ccc(-c2cc(NCCCN3CCOCC3)c3ccccc3n2)cc1 | 26.9
15 | CN1CCN(c2ccc(-c3cc(NCCCCN4CCCC4)c4ccccc4n3)cc2)CC1 | 5.5
16 | Oc1c(CN2CCCC2)cc(Nc2cc(-c3ccc4ccccc4c3)nc3ccccc23)cc1CN1CCCC1 | 1.15
17 | CN(C)CCCNc1cc(-c2ccc(N3CCN(C)CC3)cc2)nc2ccccc12 | 1
18 | CN1CCN(Cc2ccc(-c3cc(NCCN4CCCC4)c4ccccc4n3)cc2)CC1 | 3.24
19 | CN1CCN(CCCNc2cc(-c3ccc(CN4CCN(C)CC4)cc3)nc3ccccc23)CC1 | 6.76
20 | CN(C)CCCNc1cc(-c2ccc(CN3CCN(C)CC3)cc2)nc2ccccc12 | 9.12
21 | CN1CCN(CCCCNc2cc(-c3ccc(F)cc3)nc3ccccc23)CC1 | 15.8
22 | COc1ccc(C2C=C(NCCN(C)C)c3cc(F)ccc3N2)c(F)c1 (stereo not drawn) | 141

Row | Compound | EC50 [nM]
23 | CN1CCN(c2ccc(-c3cc(NCCC4CCCN4C)c4ccccc4n3)cc2)CC1 (stereo not drawn) | 2
24 | CN(C)CCNc1cc(-c2ccc(C(F)(F)F)cc2)nc2ccc(F)cc12 | 407
25 | CN1CCN(Cc2ccc(-c3cc(N4CCN(C)CC4)c4ccccc4n3)cc2)CC1 | 58.9
26 | CN1CCN(c2ccc(-c3cc(NCCN4CCCC4)c4ccccc4n3)cc2)CC1 | 2.4
27 | CN(C)CCNc1cc(-c2ccccc2F)nc2ccc(F)cc12 | 417
28 | Fc1ccc(-c2cc(NCCN3CCOCC3)c3ccccc3n2)cc1 | 417
29 | CN(C)CCNc1cc(-c2ccc(N3CCN(C)CC3)cc2)nc2ccc(Cl)cc12 | 1.45
30 | Fc1ccc(-c2cc(NCCN3CCCC3)c3ccccc3n2)cc1 | 24
31 | CN(C)CCNc1cc(-c2cccc(F)c2)nc2ccc(F)cc12 | 282
32 | CCN1CCCC1CNc1cc(-c2ccc(C)cc2)nc2ccccc12 (stereo not drawn) | 21.9
33 | Cc1ccc(-c2cc(Nc3ccc(O)cc3)c3ccccc3n2)cc1 | 151
34 | c1ccc2cc(-c3cc(NCCCN4CCOCC4)c4ccccc4n3)ccc2c1 | 3.55
35 | COc1ccc(-c2cc(NCCN(C)C)c3cc(F)ccc3n2)cc1F | 79.4
36 | CN1CCN(c2ccccc2-c2cc(N3CCN(C)CC3)c3ccccc3n2)CC1 | 132
37 | c1cc(CNCCCN2CCOCC2)cc(-c2cc(NCCN3CCOCC3)c3ccccc3n2)c1 | 12
38 | CN1CCN(Cc2cccc(-c3cc(NCCCN4CCCC4)c4ccccc4n3)c2)CC1 | 120
39 | CN1CCN(CCNc2cc(-c3ccc(F)cc3)nc3ccccc23)CC1 | 18.6
40 | CCN1CCCC1CNc1cc(-c2ccc3ccccc3c2)nc2ccccc12 (stereo not drawn) | 5.37
41 | CN(C)CCNc1cc(-c2ccccc2Cl)nc2ccc(Cl)cc12 | 468
42 | Cc1ccc(-c2cc(NCCCN3CCN(C)CC3)c3ccccc3n2)cc1 | 13.8
43 | CCN1CCCC1CNc1cc(-c2ccc(F)cc2)nc2ccccc12 (stereo not drawn) | 17
44 | COc1ccc(-c2cc(NCCN(C)C)c3ccc(C(F)(F)F)cc3n2)cc1F | 407

Row | Compound | EC50 [nM]
45 | Cc1ccc(-c2cc(Nc3cc(CN4CCN(C)CC4)c(O)c(CN4CCN(C)CC4)c3)c3ccccc3n2)cc1 | 1.45
46 | CN1CCCC1CCNc1cc(-c2ccc(F)cc2)nc2ccccc12 (stereo not drawn) | 13.2
47 | CN(C)CCNc1cc(-c2ccccc2N2CCN(C)CC2)nc2ccc(F)cc12 | 13.2
48 | CN(C)CCNc1cc(-c2ccc(CN3CCN(C)CC3)cc2)nc2ccccc12 | 7.08
49 | CN1CCCC1CCNc1cc(-c2ccc3ccccc3c2)nc2ccccc12 (stereo not drawn) | 2.04
50 | CN(C)CCNc1ccccc1-c1cc(NCCN(C)C)c2ccccc2n1 | 6.46
51 | Fc1ccc(-c2cc(NCCCN3CCCC3)c3ccccc3n2)cc1 | 191
52 | CN(C)CCNc1cc(-c2ccc(N3CCCCC3)cc2)nc2ccccc12 | 5.37
53 | CN1CCN(Cc2cc(Nc3cc(-c4ccc5ccccc5c4)nc4ccccc34)cc(CN3CCN(C)CC3)c2O)CC1 | 0.24
54 | CN1CCN(Cc2cccc(-c3cc(N4CCN(C)CC4)c4ccccc4n3)c2)CC1 | 100
55 | CN1CCN(c2ccc(-c3cc(NCCN4CCOCC4)c4ccccc4n3)cc2)CC1 | 3.31
56 | CN1CCCC1CCNc1cc(-c2ccccc2F)nc2ccccc12 (stereo not drawn) | 204
57 | CN(C)CCNc1cc(-c2ccc(N3CCN(C)CC3)cc2)nc2ccccc12 | 0.759
58 | c1ccc2cc(-c3cc(NCCCN4CCCC4)c4ccccc4n3)ccc2c1 | 13.5
59 | CN1CCN(c2ccc(-c3cc(N4CCN(C)CC4)c4ccccc4n3)cc2)CC1 | 2.69
60 | CN(C)CCCNc1cc(-c2ccc(N3CCCCC3)cc2)nc2ccccc12 | 15.8
61 | CN(C)CCNc1cc(-c2ccc(F)cc2)nc2cc(C(F)(F)F)ccc12 | 490
62 | CN1CCN(Cc2cc(Nc3cc(-c4ccc(F)cc4)nc4ccccc34)cc(CN3CCN(C)CC3)c2O)CC1 | 1.74
63 | CN1CCN(Cc2cccc(-c3cc(NCCC4CCCN4C)c4ccccc4n3)c2)CC1 (stereo not drawn) | 7.76
64 | Cc1ccc(-c2cc(NCCCN3CCCC3)c3ccccc3n2)cc1 | 105
65 | CN1CCN(c2cc(-c3ccc4ccccc4c3)nc3ccc(-c4ccccc4)cc23)CC1 | 741
66 | Cc1ccc(-c2cc(Nc3cc(CN4CCCC4)c(O)c(CN4CCCC4)c3)c3ccccc3n2)cc1 | 1.78

The next lines start with the values.

Row | EC50 [nM] | Compound
67 | 1.91 | CN(C)CCCCCCNc1cc(-c2ccc(N3CCN(C)CC3)cc2)nc2ccccc12
68 | 50.1 | Cc1cccc(-c2cc(NCCCN3CCOCC3)c3ccccc3n2)c1
69 | 162 | CN(C)CCNc1cc(-c2ccccc2Cl)nc2ccccc12
70 | 21.9 | CCN1CCCC1CNc1cc(-c2cccc(C)c2)nc2ccccc12 (stereo not drawn)
71 | 9.12 | CN(C)CCNc1cc(-c2ccc3ccccc3c2)nc2ccccc12
72 | 3.98 | CN(C)CCCNc1cc(-c2cccc(CN3CCN(C)CC3)c2)nc2ccccc12
73 | 12.3 | Cc1ccc(-c2cc(NCCN(C)C)c3ccccc3n2)cc1
74 | 11 | CN(C)CCCNc1cc(-c2ccc3ccccc3c2)nc2ccccc12
75 | 155 | CN(C)CCNc1cc(-c2ccc(C(F)(F)F)cc2)nc2ccccc12
76 | 5.89 | CN(C)CCCCNc1cc(-c2ccccc2NCCN(C)C)nc2ccccc12
77 | 51.3 | CN(C)CCNc1cc(-c2ccc(F)cc2)nc2ccccc12
78 | 13.8 | Cc1cccc(-c2cc(NCCCCN(C)C)c3ccccc3n2)c1
79 | 22.4 | CCN(CC)CCNc1cc(-c2cccc(C)c2)nc2ccccc12
80 | 5.89 | CN(C)CCCCCCNc1cc(-c2ccc3ccccc3c2)nc2ccccc12
81 | 52.5 | CN(C)CCCNc1cc(-c2cccc(CNCCCN3CCOCC3)c2)nc2ccccc12
82 | 27.5 | Cc1cccc(-c2cc(NCCCN3CCN(C)CC3)c3ccccc3n2)c1
83 | 18.6 | CCN(CC)CCNc1cc(-c2ccc(C)cc2)nc2ccccc12
84 | 20.4 | CN(C)CCCNc1cc(-c2cccc(CNCCN3CCOCC3)c2)nc2ccccc12

Row | EC50 [nM] | Compound
85 | 72.4 | Cc1cccc(-c2cc(NCCN(C)C)c3ccccc3n2)c1
86 | 155 | CN(C)CCCNCc1cccc(-c2cc(NCCN3CCOCC3)c3ccccc3n2)c1
87 | 14.1 | Cc1cccc(-c2cc(NCCC3CCCN3C)c3ccccc3n2)c1 (stereo not drawn)
88 | 646 | Cc1cccc(-c2cc(NCCN3CCOCC3)c3ccccc3n2)c1
89 | 20.4 | CN(C)CCCCCCNc1cc(-c2ccc(F)cc2)nc2ccccc12
90 | 107 | CN(C)CCCNc1cc(-c2ccccc2F)nc2ccccc12
91 | 11.5 | Cc1ccc(-c2cc(NCCCN(C)C)c3ccccc3n2)cc1
92 | 525 | CN(C)CCCNCc1cccc(-c2cc(NCCCN3CCN(C)CC3)c3ccccc3n2)c1
93 | 46.8 | CN(C)CCCCNc1cc(-c2ccc(N3CCCCC3)cc2)nc2ccccc12
94 | 186 | Cc1ccccc1-c1cc(NCCCN(C)C)c2ccccc2n1
95 | 35.5 | COc1ccc(-c2cc(NCCN(C)C)c3ccccc3n2)cc1F
96 | 13.2 | Cc1cccc(-c2cc(NCCCN(C)C)c3ccccc3n2)c1
97 | 195 | Cc1cccc(-c2cc(NCCCN3CCCC3)c3ccccc3n2)c1
98 | 1.45 | CN(C)CCCCCNc1cc(-c2ccc(N3CCN(C)CC3)cc2)nc2ccccc12
99 | 1.23 | CN(C)CCCCNc1cc(-c2ccc(N3CCN(C)CC3)cc2)nc2ccccc12
100 | 15.5 | CN(C)CCCCCNc1cc(-c2ccc(F)cc2)nc2ccccc12
101 | 107 | CN(C)CCCCNc1cc(-c2ccccc2F)nc2ccccc12
102 | 3.72 | CN(C)CCCCNc1cc(-c2ccc3ccccc3c2)nc2ccccc12

same assay, conditions: wehi

Row | Log EC50 | Compound
103 | -8.26 and -7.76 | CN(C)CCCCNc1cc(-c2ccc(F)cc2)nc2ccccc12
